Assay results reported in patent US9815862B2, “Polymorphs of LNnT” (Glycom A/S, priority 2012, dated 2017).

Columns and labels:
[1] = Redissolution of the precipitate formed from aqueous LNnT solution; format: physicochemical; conditions: white precipitate from aqueous solution stored at 2-8° C. or room temperature
Experimental: Amorphous spray-dried LNnT (6.0087 g, water content: 2.67%, purity: 99.2% by HPAEC) was dissolved in HPLC water (10.66 ml). Dissolution was reached by shaking. Two samples of 1 ml solution were stored at 2-8° C. (sample 1) and room temperature (sample 2), respectively, for 4 weeks. […] The precipitation was collected by filtration and dried at atmospheric pressure.

[2] = Storage of crystalline polymorph in an open vessel, checked by XRPD; format: physicochemical; conditions: stored in an open vessel at ambient temperature and humidity for a week
Experimental: XRPD investigation of the collected crystals was conducted with a Philips PW 1830/PW 1050 instrument in transmission geometry, using CuKα radiation made monochromatic by means of a graphite monochromator. D-spacings were calculated from the 2Θ values, based on a wavelength of 1.54186 Å. As a general rule the 2Θ values have an error rate of […].

CC(=O)N[C@H]1[C@H](O[C@H]2[C@@H](O)[C@@H](CO)O[C@@H](O[C@H]3[C@H](O)[C@@H](O)C(O)O[C@@H]3CO)[C@@H]2O)O[C@H](CO)[C@@H](O[C@@H]2O[C@H](CO)[C@H](O)[C@H](O)[C@H]2O)[C@@H]1O (mixture of isomers) [LNnT polymorph IV, lacto-N-neotetraose]
redissolution of the precipitated crystals [1]: can be redissolved only when ultrasonicated for 3 hours at 50 °C

CC(=O)N[C@H]1[C@H](O[C@H]2[C@@H](O)[C@@H](CO)O[C@@H](O[C@H]3[C@H](O)[C@@H](O)C(O)O[C@@H]3CO)[C@@H]2O)O[C@H](CO)[C@@H](O[C@@H]2O[C@H](CO)[C@H](O)[C@H](O)[C@H]2O)[C@@H]1O (mixture of isomers) [LNnT polymorph V, lacto-N-neotetraose]
change in XRPD pattern on storage (solid-state stability) [2]: no substantial change in its XRPD pattern can be observed
